This note sets out measurements from article PMC11026403 (Communications Biology, 2024).

This assay has as its target A/Denmark/528/2009 (H1N1)pdm09 NA-H274Y (Influenza A virus, UniProt C3W5S3, H275Y). It is filed as biochemical, Influenza A virus A/Denmark/528/2009 (H1N1)pdm09.

pIC50: −log10 of the molar value.

As usually defined, the pIC50 is the IC50 on a negative log10 scale, so that one unit is a factor of ten. With `CCC(CC)[C@H](NC(C)=O)[C@@H]1[C@H](O)[C@@H](C(=O)O)C[C@H]1N=C(N)N` [peramivir], the pIC50 was 7.63 and the “NAI susceptibility classification (WHO guidance)” value is given as “highly reduced inhibition (key: <10-fold, normal inhibition; 10–100 fold, reduced inhibition; >100-fold, highly reduced inhibition)”.

`CCC(CC)O[C@@H]1C=C(C(=O)O)C[C@H](N)[C@H]1NC(C)=O` [oseltamivir, oseltamivir carboxylate]: the “NAI susceptibility classification (WHO guidance)” value is reported as “highly reduced inhibition (key: <10-fold, normal inhibition; 10–100 fold, reduced inhibition; >100-fold, highly reduced inhibition)”.
